Results reported in patent US12290519B2, “Anti-inflammatory coupling compound drug, and preparation method therefor and use thereof” (COVAL BIOPHARMA (SHANGHAI) CO., LTD., priority 2021, dated 2025).

Assay: Hydrolysis rate / drug release rate of the compounds (release of JAK inhibitor, HPLC)
Format: physicochemical
Conditions: % release of JAK inhibitor from sample in acetonitrile/water=7/3 (v/v), 37° C. constant temperature shaker, sampled days 1-4, HPLC
Outline: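 Compounds (about 5 mg per 20 mL) were dissolved in acetonitrile/water 7/3 (v/v) and held sealed at 37° C in a shaker, sampled on days 0, 1, 2, 3 and 4. Released JAK inhibitor was quantified by HPLC peak area against a 0.0002–0.08 mg/mL reference curve and expressed as % release corrected for molecular weights.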

Row | SMILES | Release Rate (%/day)
1 | CCS(=O)(=O)N1CC(CC#N)(n2cc(-c3ncnc4c3ccn4COC(=O)c3ccccc3Nc3cccc(Cl)c3C)cn2)C1 [Ex. 81, Methyl (4-(1-(3-(cyanomethyl)-1-(ethylsulfonyl)azetidin-3-yl)-1H-pyrazol-4-yl)-7H-pyrrolo [2,3-d]pyrimidin-7-yl) 2-((3-chloro-2-methylphenyl)amino) benzoate] | 0.013
2 | CNS(=O)(=O)C[C@H]1CC[C@H](N(C)c2ncnc3c2ccn3C(=O)[C@@H](NC(=O)OC(C)(C)C)c2ccccc2)CC1 [Ex. 46, tert-butyl ((S)-2-(4-(methyl ((trans)-4-((N-methylsulfamoyl)methyl)cyclohexyl)amino)-7H-pyrrolo [2,3-d]pyrimidin-7-yl)-2-oxo-1-phenylethyl) carbamate] | 25.52
3 | CC[C@@H]1CN(C(=O)NCC(F)(F)F)C[C@@H]1c1cnc2cnc3c(ccn3C(=O)C(C)c3cccc(C(=O)c4ccccc4)c3)n12 (stereo partly drawn) [Ex. 126, (3R, 4S)-3-(3-(2-(3-benzoylphenyl)propanoyl)-3H-imidazo [1,2-a]pyrrolo [2,3-e]pyrazin-8-yl)-4-ethyl-N-(2,2,2-trifluoroethyl) pyrrolidine-1-carboxamide] | 7.80
4 | CC(C(=O)n1ccc2c(N(C)[C@H]3CN(C(=O)CC#N)CC[C@H]3C)ncnc21)c1cccc(Oc2ccccc2)c1 (stereo partly drawn) [Ex. 10, 3-((3R,4R)-4-methyl-3-(methyl (7-(2-(3-phenoxyphenyl)propanoyl)-7H-pyrrolo [2,3-d]pyrimidin-4-yl)amino)piperidin-1-yl)-3-oxopropanenitrile] | 11.25
5 | CCS(=O)(=O)N1CC(CC#N)(n2cc(-c3ncnc4c3ccn4C(=O)C(C)c3cccc(C(=O)c4ccccc4)c3)cn2)C1 (stereo not shown) [Ex. 19, 2-(3-(4-(7-(2-(3-benzoylphenyl)propanoyl)-7H-pyrrolo [2,3-d]pyrimidin-4-yl)-1H-pyrazol-1-yl)-1-(ethylsulfonyl)azetidin-3-yl) acetonitrile] | 6.25
6 | CCS(=O)(=O)N1CC(CC#N)(n2cc(-c3ncnc4c3ccn4C(=O)Cc3ccc(NC(C)=O)cc3)cn2)C1 [Ex. 24, N-(4-(2-(4-(1-(3-(cyanomethyl)-1-(ethylsulfonyl)azetidin-3-yl)-1H-pyrazol-4-yl)-7H-pyrrolo [2,3-d]pyrimidin-7-yl)-2-oxoethyl)phenyl) acetamide] | 5.96
7 | C[C@@H]1CCN(C(=O)CC#N)C[C@@H]1N(C)c1ncnc2c1ccn2COC(=O)[C@@H](NC(=O)OC(C)(C)C)c1ccccc1 [Ex. 64, (4-(((3R, 4R)-1-(2-cyanoacetyl)-4-methylpiperidin-3-yl) (methyl)amino)-7H-pyrrolo [2,3-d]pyrimidin-7-yl) methyl (S)-2-((tert-butoxycarbonyl)amino)-2-phenylacetate] | 0.88
8 | CC(C(=O)n1ccc2c(N(C)[C@H]3CN(C(=O)CC#N)CC[C@H]3C)ncnc21)c1ccc(-c2ccccc2)c(F)c1 (stereo partly drawn) [Ex. 8, 3-((3R, 4R)-3-((7-(2-(2-fluoro-[1, 1′-biphenyl]-4-yl)propanoyl)-7H-pyrrolo[2,3-d]pyrimidin-4-yl)(methyl)amino)-4-methylpiperidin-1-yl)-3-oxopropanenitrile] | 14.77
9 | CC[C@@H]1CN(C(=O)NCC(F)(F)F)C[C@@H]1c1cnc2cnc3c(ccn3C(=O)[C@@H](C)c3ccc(CC(C)C)cc3)n12 [Ex. 123, (3S, 4R)-3-ethyl-4-(3-((S)-2-(4-isobutylphenyl)propanoyl)-3H-imidazo [1,2-a]pyrrolo [2,3-e]pyrazin-8-yl)-N-(2,2,2-trifluoroethyl) pyrrolidine-1-carboxamide] | 3.02
10 | CC(C(=O)n1ccc2c(N(C)[C@H]3CN(C(=O)CC#N)CC[C@H]3C)ncnc21)c1cccc(C(=O)c2ccccc2)c1 (stereo partly drawn) [Ex. 7, 3-((3R,4R)-3-((7-(2-(3-benzoylphenyl)propanoyl)-7H-pyrrolo[2,3-d]pyrimidin-4-yl) (methyl)amino)-4-methylpiperidin-1-yl)-3-oxopropanenitrile] | 15.65
11 | CCC(C(=O)n1ccc2c(N(C)C3CCC(CS(=O)(=O)NC)CC3)ncnc21)c1ccc(N2Cc3ccccc3C2=O)cc1 (stereo not drawn) [Ex. 35, N-methyl-1-((trans)-4-(methyl (7-(2-(4-(1-oxoisoindolin-2-yl)phenyl)butanoyl)-7H-pyrrolo [2,3-d]pyrimidin-4-yl)amino)cyclohexyl) methanesulfonamide] | 4.57
12 | CCS(=O)(=O)N1CC(CC#N)(n2cc(-c3ncnc4c3ccn4C(=O)[C@@H](C)c3ccc4cc(OC)ccc4c3)cn2)C1 [Ex. 18, (S)-2-(1-(ethylsulfonyl)-3-(4-(7-(2-(6-methoxynaphthalen-2-yl)propanoyl)-7H-pyrrolo [2,3-d]pyrimidin-4-yl)-1H-pyrazol-1-yl)azetidin-3-yl) acetonitrile] | 2.97
13 | CNS(=O)(=O)CC1CCC(N(C)c2ncnc3c2ccn3C(=O)C(C)c2ccc(-c3ccccc3)c(F)c2)CC1 (stereo not drawn) [Ex. 36, 1-((Trans)-4-((7-(2-(2-fluoro-[1, 1′-biphenyl]-4-yl)propanoyl)-7H-pyrrolo [2,3-d]pyrimidin-4-yl) (methyl)amino)cyclohexyl)-N-methyl methanesulfonamide] | 14.98
14 | CCS(=O)(=O)N1CC(CC#N)(n2cc(-c3ncnc4c3ccn4COC(=O)Cc3c(C)n(C(=O)c4ccc(Cl)cc4)c4ccc(OC)cc34)cn2)C1 [Ex. 73, Methyl (4-(1-(3-(cyanomethyl)-1-(ethylsulfonyl)azetidin-3-yl)-1H-pyrazol-4-yl)-7H-pyrrolo [2,3-d]pyrimidin-7-yl) 2-(1-(4-chlorobenzoyl)-5-methoxy-2-methyl-1H-indol-3-yl) acetate] | 0.2

Other lines, results leading:

Row | Release Rate (%/day) | SMILES
15 | 0.43 | Cc1cccc(Nc2ccccc2C(=O)n2ccc3c(-c4cnn([C@H](CC#N)C5CCCC5)c4)ncnc32)c1C [Ex. 82, (R)-3-cyclopentyl-3-(4-(7-(2-((2,3-dimethylphenyl)amino)benzoyl)-7H-pyrrolo [2,3-d]pyrimidin-4-yl)-1H-pyrazol-1-yl) propanenitrile]
16 | 0.05 | CC(C(=O)OCn1ccc2c(N(C)[C@H]3CN(C(=O)CC#N)CC[C@H]3C)ncnc21)c1ccc(-c2ccccc2)c(F)c1 (stereo partly drawn) [Ex. 50, (4-(((3R, 4R)-1-(2-cyanoacetyl)-4-methylpiperidin-3-yl) (methyl)amino)-7H-pyrrolo [2,3-d]pyrimidin-7-yl) methyl 2-(2-fluoro-[1, 1′-biphenyl]-4-yl) propanoate]
17 | 0.01 | CCS(=O)(=O)N1CC(CC#N)(n2cc(-c3ncnc4c3ccn4COC(=O)C(C)c3cccc(C(=O)c4ccccc4)c3)cn2)C1 (stereo not shown) [Ex. 62, 4-(1-(3-(cyanomethyl)-1-(ethylsulfonyl)azetidin-3-yl)-1H-pyrazol-4-yl)-7H-pyrrolo [2,3-d] pyrimidin-7-yl) methyl 2-(3-benzoylphenyl) propanoate]
18 | 0.03 | CCS(=O)(=O)N1CC(CC#N)(n2cc(-c3ncnc4c3ccn4COC(=O)C(C)c3ccc(-c4ccccc4)c(F)c3)cn2)C1 (stereo not shown) [Ex. 69, Methyl (4-(1-(3-(cyanomethyl)-1-(ethylsulfonyl)azetidin-3-yl)-1H-pyrazol-4-yl)-7H-pyrrolo [2,3-d]pyrimidin-7-yl) 2-(2-fluoro-[1, 1′-biphenyl]-4-yl) propanoate]
19 | <0.01 | CC(C)Cc1ccc([C@H](C)C(=O)OCn2ccc3c(-c4cnn([C@H](CC#N)C5CCCC5)c4)ncnc32)cc1 [Ex. 86, (4-(1-((R)-2-cyano-1-cyclopentylethyl)-1H-pyrazol-4-yl)-7H-pyrrolo [2,3-d]pyrimidin-7-yl) methyl (S)-2-(4-isobutylphenyl) propanoate]
20 | 0.01 | CCS(=O)(=O)N1CC(CC#N)(n2cc(-c3ncnc4c3ccn4COC(=O)C(C)c3cccc(Oc4ccccc4)c3)cn2)C1 (stereo not shown) [Ex. 71, Methyl (4-(1-(3-(cyanomethyl)-1-(ethylsulfonyl)azetidin-3-yl)-1H-pyrazol-4-yl)-7H-pyrrolo [2,3-d]pyrimidin-7-yl) 2-(3-phenoxyphenyl) propanoate]
21 | 0.24 | CC(C(=O)OCn1ccc2c(-c3cnn([C@H](CC#N)C4CCCC4)c3)ncnc21)c1ccc(-c2ccccc2)c(F)c1 (stereo partly drawn) [Ex. 100, (4-(1-((R)-2-cyano-1-cyclopentylethyl)-1H-pyrazol-4-yl)-7H-pyrrolo [2,3-d]pyrimidin-7-yl) methyl 2-(2-fluoro-[1, 1′-biphenyl]-4-yl) propanoate]
22 | 0.01 | COc1ccc2cc([C@H](C)C(=O)OCn3ccc4c(-c5cnn([C@H](CC#N)C6CCCC6)c5)ncnc43)ccc2c1 [Ex. 87, (4-(1-((R)-2-cyano-1-cyclopentylethyl)-1H-pyrazol-4-yl)-7H-pyrrolo [2,3-d]pyrimidin-7-yl) methyl (S)-2-(6-methoxynaphthalen-2-yl) propanoate]
